Data: patent US6869913B1, “Pyridazin-3-one derivatives, their use and intermediates for their production” (Sumitomo Chemical Company, Limited, priority 1995, dated 2005)

Columns and labels:
Type in all cases: in vivo
[1] = test system: entireleaf morningglory (Ipomoea hederacea var. integriuscula); assay: Test Example 3: soil surface treatment on upland fields; conditions: 500 g/ha active ingredient; soil surface spray; examined after 19 days
Method: (§1) Cylindrical plastic pots of 10 cm in diameter and 10 am in depth were filled with soil, in which the seeds of […] (Ipomoea hederacea var. integriuscula) and velvetleaf (Abutilon theophrash) were sowed. Each of the test compounds listed below was formulated into an emulsifiable concentrate according to Formulation Example 2, which was diluted with water to a prescribed concentration. The dilution was uniformly sprayed over the soil surface in the pots with a sprayer at a volume of 1000 liters per hectare. After the application, the test plants were grown in a greenhouse for 19 days, and the herbicidal activity was examined.

[2] = test system: velvetleaf (Abutilon theophrash); assay: as above; conditions: 500 g/ha active ingredient; soil surface spray; examined after 19 days
Method: as §1

[3] = test system: entireleaf morningglory (Ipomoea hederacea var. integriuscula); assay: Test Example 1: foliar treatment on upland fields; conditions: 500 g/ha active ingredient; foliar spray; examined 19 days after application
Method: as §1, with “10 cm” for “10 am”, “were sowed, and the test plants were grown in a greenhouse for 19 days.” for “were sowed.”, “water containing a spreading agent” for “water”, “the foliage of” for “the soil surface in”, “the test plants” for “the pots”, “in the” for “in a”

[4] = test system: velvetleaf (Abutilon theophrash); assay: Test Example 1: foliar treatment on upland fields; conditions: 500 g/ha active ingredient; foliar spray; examined 19 days after application
Method: as §1, with “10 cm” for “10 am”, “were sowed, and the test plants were grown in a greenhouse for 19 days.” for “were sowed.”, “water containing a spreading agent” for “water”, “the foliage of” for “the soil surface in”, “the test plants” for “the pots”, “in the” for “in a”

[5] = test system: barnyardgrass (Echinochloa oryzicola); assay: Test Example 4: flooding treatment on paddy fields; conditions: application amount of active ingredient 250 g/ha, examined 19 days after application, index 0 to 5
Method: Cylindrical plastic pots of 9 cm in diameter and 11 cm in depth were filled with soil, in which the seeds of barnyardgrass (Echinochloa oryzicola) were sowed. These pots were flooded to form a paddy field, and the test plants were grown in a greenhouse for 7 days. Each of the test compounds listed below was formulated into an emulsifiable concentrate according to Formulation Example 2, which was diluted with water to a prescribed concentration. The dilution was applied to the water surface in the pots at a volume of 50 liters per hectare. After the application, the test plants were grown in the greenhouse for 19 days, and the herbicidal activity was examined.

[6] = test system: catchweed bedstraw (Galium aparine); assay: Test Example 6: foliar treatment on upland fields; conditions: 63 g/ha active ingredient; foliar spray; 25 days after application
Excerpt: (§2) The herbicidal activity is excellent when rated at “4” or “5” but insufficient when rated at “3” or lower. The phytotoxicity is no problematic on practical use when rated at “0” or “1” but not allowed when rated at “2” or higher.
(§3) Plastic pots of 16×11 cm^2 in are and 7 cm in depth were filled with soil, in which the seeds of wheat (Triticum aestivum), pale smartweed (Polygonum lapathifolium), catchweed bedstraw (Galium aparine), and common chickweed (Stellaria media) were sowed, and the test plants were grown for 29 days. Each of the test compounds listed below was formulated into an emulsifiable concentrate according to Formulation Example 2, which was diluted with water to a prescribed concentration. The dilution was uniformly sprayed over the foliage of the test plants with a sprayer at a volume of 1000 liters per hectare. At this time, the unfavorable weeds and crop plants, although their growth state was different depending upon the weed species, were at the 1- to 4-leaf stage, and the plant height was 5 to 15 cm. After 25 days from the application, the herbicidal activity and phytotoxicity were examined. This test was made in a greenhouse over the entire period.

[7] = test system: pale smartweed (Polygonum lapathifolium); assay: Test Example 6: foliar treatment on upland fields; conditions: 63 g/ha active ingredient; foliar spray; 25 days after application
Excerpt: as §2, §3

[8] = test system: common chickweed (Stellaria media); assay: Test Example 6: foliar treatment on upland fields; conditions: 63 g/ha active ingredient; foliar spray; 25 days after application
Excerpt: as §2, §3

[9] = test system: entireleaf morningglory (Ipomoea hederacea var. integriuscula); assay: Test Example 2: foliar treatment on upland fields; design: key: rating; 4–5 = excellent activity, 3 or lower = insufficient; conditions: 32 g/ha active ingredient; foliar spray; examined 19 days after application
Excerpt: as §2
(§4) Cylindrical plastic pots of 10 cm in diameter and 10 cm in depth were filled with soil, in which the seeds of barnyardgrass (Echinochloa crus-galli), entireleaf morningglory (Ipomoea hederacea var. integriuscula) and velvetleaf (Abutilon theophrash) were sowed, and the test plants were grown in a greenhouse for 19 days. Each of the test compounds listed below was formulated into an emulsifiable concentrate according to Formulation Example 2, which was diluted with water containing a spreading agent to a prescribed concentration. The dilution was uniformly sprayed over the foliage of the test plants with a sprayer at a volume of 1000 liters per hectare. After the application, the test plants were grown in the greenhouse for 19 days, and the herbicidal activity was examined.

[10] = test system: velvetleaf (Abutilon theophrash); assay: Test Example 2: foliar treatment on upland fields; design: key: rating; 4–5 = excellent activity, 3 or lower = insufficient; conditions: 32 g/ha active ingredient; foliar spray; examined 19 days after application
Excerpt: as §2, §4

[11] = test system: barnyardgrass (Echinochloa crus-galli); assay: Test Example 2: foliar treatment on upland fields; design: key: rating; 4–5 = excellent activity, 3 or lower = insufficient; conditions: 32 g/ha active ingredient; foliar spray; examined 19 days after application
Excerpt: as §2, §4

[12] = test system: common ragweed (Ambrosia artemisiifolia); assay: Test Example 5: foliar treatment on upland fields; conditions: 63 g/ha active ingredient; foliar spray; 18 days after application
Excerpt: as §2
(§5) Plastic pots of 25×18 cm^2 in area and 7 cm in depth were filled with soil, in which the seeds of soybean (Glycine max), corn (Zea mays), entireleaf morningglory (Ipomoea hederacea var. integriuscula), common cocklebur (Xanthium pensylvanicum), common ragweed (Ambrosia artemisiifolia), and common lambsquarters (Chenopodium album) were sowed, and the test plants were grown for 16 days. Each of the test compounds listed below was formulated into an emulsifiable concentrate according to Formulation Example 2, which was diluted with water to a prescribed concentration. The dilution was uniformly sprayed over the foliage of the test plants with a sprayer at a volume of 1000 liters per hectare. At this time, the unfavorable weeds and crop plants, although their growth state was different depending upon the weed species, were at the 1- to 4-leaf stage, and the plant height was 5 to 20 cm. After 18 days from the application, the herbicidal activity and phytotoxicity were examined. This test was made in a greenhouse over the entire period.

[13] = test system: common cocklebur (Xanthium pensylvanicum); assay: Test Example 5: foliar treatment on upland fields; conditions: 63 g/ha active ingredient; foliar spray; 18 days after application
Excerpt: as §2, §5

[14] = test system: entireleaf morningglory (Ipomoea hederacea var. integriuscula); assay: Test Example 5: foliar treatment on upland fields; conditions: 63 g/ha active ingredient; foliar spray; 18 days after application
Excerpt: as §2, §5

[15] = test system: common lambsquarters (Chenopodium album); assay: Test Example 5: foliar treatment on upland fields; conditions: 63 g/ha active ingredient; foliar spray; 18 days after application
Excerpt: as §2, §5

[16] = test system: slender amaranth (Amaranthus gracilis); assay: Test Example 7: soil surface treatment on upland fields; conditions: 63 g/ha active ingredient; soil surface spray; examined after 19 days
Excerpt: as §2
(§6) Plastic pots of 25×18 cm^2 in area and 7 cm in depth were filled with soil, in which the seeds of soybean (Glycine max), corn (Zea mays), common lambsquarters (Chenopodium album), slender amaranth (Amaranthus gracilis), and pale smartweed (Polygonum lapathifolium) were sowed. Each of the test compounds listed below was formulated into an emulsifiable concentrate according to Formulation Example 2, which was diluted with water to a prescribed concentration. The dilution was uniformly sprayed over the soil surface in the pots with a sprayer at a volume of 1000 liters per hectare. After the application, the test plants were grown in a greenhouse for 19 days, and the herbicidal activity and phytotoxicity were examined.

[17] = test system: pale smartweed (Polygonum lapathifolium); assay: as above; conditions: 63 g/ha active ingredient; soil surface spray; examined after 19 days
Excerpt: as §2, §6

[18] = test system: common lambsquarters (Chenopodium album); assay: as above; conditions: 63 g/ha active ingredient; soil surface spray; examined after 19 days
Excerpt: as §2, §6

[19] = test system: soybean (Glycine max); assay: Test Example 5: foliar treatment on upland fields (phytotoxicity); conditions: 63 g/ha active ingredient; foliar spray; 18 days after application
Excerpt: as §2, §5

[20] = test system: corn (Zea mays); assay: as above; conditions: 63 g/ha active ingredient; foliar spray; 18 days after application
Excerpt: as §2, §5

## C#CCOc1cc(-n2ncc(C(F)(F)F)c(C)c2=O)c(F)cc1Cl [Compound 1-486, 2-(4-Chloro-2-fluoro-5-propargyloxyphenyl)-4-methyl-5-trifluoromethylpyridazin-3-one]
[1]
  Herbicidal activity Entireleaf morningglory: 5
[2]
  Herbicidal activity Velvetleaf: 5
[3]
  Herbicidal activity Entireleaf morningglory: 5
[4]
  Herbicidal activity Velvetleaf: 5
[5]
  Herbicidal activity Barnyardgrass: 5
[6]
  Herbicidal activity and phytotoxicity Catchweed bedstraw: 5
[7]
  Herbicidal activity and phytotoxicity Pale smartweed: 5
[8]
  Herbicidal activity and phytotoxicity Common chickweed: 5
[9]
  Herbicidal activity Entireleaf morningglory: 5
[10]
  Herbicidal activity Velvetleaf: 5
[11]
  Herbicidal activity Barnyardgrass: 4

## CCOC(=O)COc1cc(-n2ncc(C(F)(F)F)c(C)c2=O)c(F)cc1Cl [Compound 1-496, Ethyl 2-chloro-4-fluoro-5-(4-methyl-5-trifluoromethyl-3-pyridazinon-2-yl)phenoxyacetate]
[12]
  Herbicidal activity and phytotoxicity Common ragweed: 5
[13]
  Herbicidal activity and phytotoxicity Common cocklebur: 5
[14]
  Herbicidal activity and phytotoxicity Entireleaf morningglory: 5
[15]
  Herbicidal activity and phytotoxicity Common lambsquarters: 5
[1]
  Herbicidal activity Entireleaf morningglory: 5
[2]
  Herbicidal activity Velvetleaf: 5
[3]
  Herbicidal activity Entireleaf morningglory: 5
[4]
  Herbicidal activity Velvetleaf: 5
[5]
  Herbicidal activity Barnyardgrass: 5
[6]
  Herbicidal activity and phytotoxicity Catchweed bedstraw: 5
[7]
  Herbicidal activity and phytotoxicity Pale smartweed: 4
[8]
  Herbicidal activity and phytotoxicity Common chickweed: 4
[9]
  Herbicidal activity Entireleaf morningglory: 5
[10]
  Herbicidal activity Velvetleaf: 5
[11]
  Herbicidal activity Barnyardgrass: 5

## CCOC(=O)c1cc(-n2ncc(C(F)(F)F)c(C)c2=O)c(F)cc1Cl [Compound 1-642, Ethyl 2-chloro-4-fluoro-5-(4-methyl-5-trifluoromethyl-3-pyridazinon-2-yl)benzoate]
[1]
  Herbicidal activity Entireleaf morningglory: 5
[2]
  Herbicidal activity Velvetleaf: 5
[3]
  Herbicidal activity Entireleaf morningglory: 5
[4]
  Herbicidal activity Velvetleaf: 5
[5]
  Herbicidal activity Barnyardgrass: 5
[9]
  Herbicidal activity Entireleaf morningglory: 5
[10]
  Herbicidal activity Velvetleaf: 5
[11]
  Herbicidal activity Barnyardgrass: 5
[16]
  Herbicidal activity and phytotoxicity Slender amaranth: 5
[17]
  Herbicidal activity and phytotoxicity Pale smartweed: 5
[18]
  Herbicidal activity and phytotoxicity Common lambsquarters: 5

## C#CCN1C(=O)COc2ccc(-n3ncc(C(F)(F)F)c(C)c3=O)cc21 [Compound 2-203, 6-(4-Methyl-5-trifluoromethyl-3-pyridazinon-2-yl)-4-propargyl-2H-1,4-benzoxazin-3-one]
[1]
  Herbicidal activity Entireleaf morningglory: 5
[2]
  Herbicidal activity Velvetleaf: 5
[3]
  Herbicidal activity Entireleaf morningglory: 5
[4]
  Herbicidal activity Velvetleaf: 5
[5]
  Herbicidal activity Barnyardgrass: 5
[9]
  Herbicidal activity Entireleaf morningglory: 5
[10]
  Herbicidal activity Velvetleaf: 5
[11]
  Herbicidal activity Barnyardgrass: 4
[16]
  Herbicidal activity and phytotoxicity Slender amaranth: 5
[17]
  Herbicidal activity and phytotoxicity Pale smartweed: 5
[18]
  Herbicidal activity and phytotoxicity Common lambsquarters: 5

## C#CCN1C(=O)COc2cc(F)c(-n3ncc(C(F)(F)F)cc3=O)cc21 [Compound 2-631, 7-Fluoro-6-(5-trifluoromethyl-3-pyridazinon-2-yl)-4-propargyl-2H-1,4-benzoxazin-3-one]
[1]
  Herbicidal activity Entireleaf morningglory: 5
[2]
  Herbicidal activity Velvetleaf: 5
[3]
  Herbicidal activity Entireleaf morningglory: 5
[4]
  Herbicidal activity Velvetleaf: 5
[5]
  Herbicidal activity Barnyardgrass: 5
[9]
  Herbicidal activity Entireleaf morningglory: 5
[10]
  Herbicidal activity Velvetleaf: 5
[11]
  Herbicidal activity Barnyardgrass: 5
[16]
  Herbicidal activity and phytotoxicity Slender amaranth: 5
[17]
  Herbicidal activity and phytotoxicity Pale smartweed: 5
[18]
  Herbicidal activity and phytotoxicity Common lambsquarters: 5

## Pentyl 2-chloro-4-fluoro-5-(4-methyl-5-trifluoromethyl-3-pyridazinon-2-yl) phenoxyacetate [Compound 1-499]
[12]
  Herbicidal activity and phytotoxicity Common ragweed: 5
[13]
  Herbicidal activity and phytotoxicity Common cocklebur: 5
[14]
  Herbicidal activity and phytotoxicity Entireleaf morningglory: 5
[15]
  Herbicidal activity and phytotoxicity Common lambsquarters: 4
[1]
  Herbicidal activity Entireleaf morningglory: 5
[2]
  Herbicidal activity Velvetleaf: 5
[3]
  Herbicidal activity Entireleaf morningglory: 5
[4]
  Herbicidal activity Velvetleaf: 5
[19]
  Herbicidal activity and phytotoxicity Soybean: 1
[20]
  Herbicidal activity and phytotoxicity Corn: 1
[5]
  Herbicidal activity Barnyardgrass: 5
[9]
  Herbicidal activity Entireleaf morningglory: 5
[10]
  Herbicidal activity Velvetleaf: 5
[11]
  Herbicidal activity Barnyardgrass: 5
